According to US20230085307A1, “PYRIDAZINONE COMPOUND AND HERBICIDE” (NISSAN CHEMICAL CORPORATION, priority 2019, published 2023):

What was measured:
chickweed = assay: Test Example 4: herbicidal effect by soil treatment (Table 19, symbol P); type: in vivo, common chickweed (Stellaria media)
In short: (§1)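 Seeds were sown in sterilized diluvial soil and covered with about 1.5 cm of soil. An emulsion formulation diluted with water to a predetermined herbicide amount was sprayed evenly onto the soil surface. Plants grew in a greenhouse at 25° C. to 30° C., and the effect was scored three weeks after application using criteria from an earlier test.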

false cleavers [1] = assay: Test Example 4: herbicidal effect by soil treatment (Table 19, symbol Q); type: in vivo, false cleavers (Galium spurium)
In short: as §1

rice flat sedge = assay: Test Example 3: herbicidal effect by foliage application, Wagner pot (Table 18, symbol E); type: in vivo, rice flat sedge (Cyperus iria)
In short: (§2)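 Plants were sown in alluvial soil held under 0.1–0.5 cm standing water and grown 14 days in a greenhouse at 25–30 °C. An emulsifiable formulation, water-diluted to the set dose, was then sprayed onto the foliage, and effects were scored three weeks later using previously defined criteria.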

southern crabgrass [2] = assay: Test Example 5: herbicidal effect by foliage application, plastic box (Table 20, symbol F); type: in vivo, southern crabgrass (Digitaria ciliaris); conditions: foliage application
In short: (§3)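 Plants sown in sterilized diluvial soil and grown 14 days in a greenhouse at 25° C to 30° C, then sprayed on the foliage with the compound's emulsion diluted in water to a predetermined herbicide amount. Injury to weeds and crops scored three weeks after application on a visual rating scale.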

windgrass [3] = assay: Test Example 4: herbicidal effect by soil treatment (Table 19, symbol L); type: in vivo, windgrass (Apera spica-venti)
In short: as §1

barnyard grass [4] = assay: Test Example 4: herbicidal effect by soil treatment (Table 19, symbol H); type: in vivo, barnyard grass (Echinochloa crus-galli)
In short: as §1

Chinese sprangletop = assay: Test Example 3: herbicidal effect by foliage application, Wagner pot (Table 18, symbol D); type: in vivo, chinese sprangletop (Leptochloa chinensis)
In short: as §2

lambsquarters [5] = assay: Test Example 4: herbicidal effect by soil treatment (Table 19, symbol O); type: in vivo, lambsquarters (Chenopodium album)
In short: as §1

blackgrass [6] = assay: Test Example 4: herbicidal effect by soil treatment (Table 19, symbol J); type: in vivo, blackgrass (Alopecurus myosuroides)
In short: as §1

Italian ryegrass [7] = assay: Test Example 5: herbicidal effect by foliage application, plastic box (Table 20, symbol K); type: in vivo, Italian ryegrass (Lolium multiflorum); conditions: foliage application
In short: as §3

barnyard grass [8] = assay: Test Example 3: herbicidal effect by foliage application, Wagner pot (Table 18, symbol H); type: in vivo, barnyard grass (Echinochloa crus-galli)
In short: as §2

wild oat [9] = assay: Test Example 5: herbicidal effect by foliage application, plastic box (Table 20, symbol I); type: in vivo, wild oat (Avena fatua); conditions: foliage application
In short: as §3

blackgrass [10] = assay: Test Example 5: herbicidal effect by foliage application, plastic box (Table 20, symbol J); type: in vivo, blackgrass (Alopecurus myosuroides); conditions: foliage application
In short: as §3

windgrass [11] = assay: Test Example 5: herbicidal effect by foliage application, plastic box (Table 20, symbol L); type: in vivo, windgrass (Apera spica-venti); conditions: foliage application
In short: as §3

Italian ryegrass [12] = assay: Test Example 4: herbicidal effect by soil treatment (Table 19, symbol K); type: in vivo, Italian ryegrass (Lolium multiflorum)
In short: as §1

wild oat [13] = assay: Test Example 4: herbicidal effect by soil treatment (Table 19, symbol I); type: in vivo, wild oat (Avena fatua)
In short: as §1

persian speedwell [14] = assay: Test Example 5: herbicidal effect by foliage application, plastic box (Table 20, symbol R); type: in vivo, Persian speedwell (Veronica persica); conditions: foliage application
In short: as §3

barnyard grass [15] = assay: Test Example 5: herbicidal effect by foliage application, plastic box (Table 20, symbol H); type: in vivo, barnyard grass (Echinochloa crus-galli); conditions: foliage application
In short: as §3

green foxtail [16] = assay: Test Example 4: herbicidal effect by soil treatment (Table 19, symbol G); type: in vivo, green foxtail (Setaria viridis)
In short: as §1

green foxtail [17] = assay: Test Example 5: herbicidal effect by foliage application, plastic box (Table 20, symbol G); type: in vivo, green foxtail (Setaria viridis); conditions: foliage application
In short: as §3

false cleavers [18] = assay: Test Example 5: herbicidal effect by foliage application, plastic box (Table 20, symbol Q); type: in vivo, false cleavers (Galium spurium); conditions: foliage application
In short: as §3

velvetleaf [19] = assay: Test Example 4: herbicidal effect by soil treatment (Table 19, symbol M); type: in vivo, velvetleaf (Abutilon theophrasti)
In short: as §1

redroot pigweed = assay: Test Example 4: herbicidal effect by soil treatment (Table 19, symbol N); type: in vivo, redroot pigweed (Amaranthus retroflexus)
In short: as §1

southern crabgrass [20] = assay: Test Example 4: herbicidal effect by soil treatment (Table 19, symbol F); type: in vivo, southern crabgrass (Digitaria ciliaris)
In short: as §1

lambsquarters [21] = assay: Test Example 5: herbicidal effect by foliage application, plastic box (Table 20, symbol O); type: in vivo, lambsquarters (Chenopodium album); conditions: foliage application
In short: as §3

persian speedwell [22] = assay: Test Example 4: herbicidal effect by soil treatment (Table 19, symbol R); type: in vivo, Persian speedwell (Veronica persica)
In short: as §1

velvetleaf [23] = assay: Test Example 5: herbicidal effect by foliage application, plastic box (Table 20, symbol M); type: in vivo, velvetleaf (Abutilon theophrasti); conditions: foliage application
In short: as §3

[24] = 283 g/ha, 3 weeks after application
[25] = amount of applied herbicide 320 g/ha
[26] = 320 g/ha, three weeks after application

## CCCC(=O)Oc1c(C)nn(C)c(=O)c1-c1c(-c2ccccc2OC)sc2ccc(F)cc12 [2-025]
chickweed; 283 g/ha
  herbicidal effect rating, P: chickweed: 4 (Herbicidal rate of 70% or more and less than 90%)
False cleavers [1]; 283 g/ha
  herbicidal effect rating, Q: false cleavers: 4 (Herbicidal rate of 70% or more and less than 90%)
Rice flat sedge; 283 g/ha
  herbicidal effect on E (rice flat sedge), rating 0-5: 4 (Herbicidal rate of 70% or more and less than 90%)
Southern crabgrass [2]; [24]
  effect on southern crabgrass (F): 4 (Herbicidal rate of 70% or more and less than 90%)
Windgrass [3]; 283 g/ha
  herbicidal effect rating, L: windgrass: 0 (Herbicidal rate of 5% or less (almost no effect))
Barnyard grass [4]; 283 g/ha
  herbicidal effect rating, H: barnyard grass: 3 (Herbicidal rate of 40% or more and less than 70%)
Chinese sprangletop; 283 g/ha
  herbicidal effect on D (Chinese sprangletop), rating 0-5: 0 (Herbicidal rate of 5% or less (almost no effect))
Lambsquarters [5]; 283 g/ha
  herbicidal effect rating, O: lambsquarters: 4 (Herbicidal rate of 70% or more and less than 90%)
Blackgrass [6]; 283 g/ha
  herbicidal effect rating, J: blackgrass: 0 (Herbicidal rate of 5% or less (almost no effect))
Italian ryegrass [7]; [24]
  effect on Italian ryegrass (K): 1 (Herbicidal rate of 5% or more and less than 20%)
Barnyard grass [8]; 283 g/ha
  herbicidal effect on H (barnyard grass), rating 0-5: 4 (Herbicidal rate of 70% or more and less than 90%)
Wild oat [9]; [24]
  effect on wild oat (I): 3 (Herbicidal rate of 40% or more and less than 70%)
Blackgrass [10]; [24]
  effect on blackgrass (J): 0 (Herbicidal rate of 5% or less (almost no effect))
Windgrass [11]; [24]
  effect on windgrass (L): 1 (Herbicidal rate of 5% or more and less than 20%)
Italian ryegrass [12]; 283 g/ha
  herbicidal effect rating, K: Italian ryegrass: 0 (Herbicidal rate of 5% or less (almost no effect))
Wild oat [13]; 283 g/ha
  herbicidal effect rating, I: wild oat: 3 (Herbicidal rate of 40% or more and less than 70%)
Persian speedwell [14]; [24]
  effect on persian speedwell (R): 4 (Herbicidal rate of 70% or more and less than 90%)
Barnyard grass [15]; [24]
  effect on barnyard grass (H): 3 (Herbicidal rate of 40% or more and less than 70%)
Green foxtail [16]; 283 g/ha
  herbicidal effect rating, G: green foxtail: 4 (Herbicidal rate of 70% or more and less than 90%)
Green foxtail [17]; [24]
  effect on green foxtail (G): 4 (Herbicidal rate of 70% or more and less than 90%)
False cleavers [18]; [24]
  effect on false cleavers (Q): 4 (Herbicidal rate of 70% or more and less than 90%)
Velvetleaf [19]; 283 g/ha
  herbicidal effect rating, M: velvetleaf: 2 (Herbicidal rate of 20% or more and less than 40%)
Redroot pigweed; 283 g/ha
  herbicidal effect rating, N: redroot pigweed: 3 (Herbicidal rate of 40% or more and less than 70%)
Southern crabgrass [20]; 283 g/ha
  herbicidal effect rating, F: southern crabgrass: 3 (Herbicidal rate of 40% or more and less than 70%)
Lambsquarters [21]; [24]
  effect on lambsquarters (O): 3 (Herbicidal rate of 40% or more and less than 70%)
Persian speedwell [22]; 283 g/ha
  herbicidal effect rating, R: persian speedwell: 3 (Herbicidal rate of 40% or more and less than 70%)
Velvetleaf [23]; [24]
  effect on velvetleaf (M): 5 (Herbicidal rate of 90% or more (almost completely withered))

## COc1cc2sc(-c3ccc(F)cc3OC)c(-c3c(O)c(C)nn(C)c3=O)c2cc1OC [5-060]
chickweed; [25]
  P: chickweed, herbicidal effect grade: 5 (Herbicidal rate of 90% or more (almost completely withered))
False cleavers [1]; [25]
  Q: false cleavers, herbicidal effect grade: 0 (Herbicidal rate of 5% or less (almost no effect))
Rice flat sedge; 320 g/ha
  herbicidal effect on rice flat sedge (E): 3 (Herbicidal rate of 40% or more and less than 70%)
Southern crabgrass [2]; [26]
  herbicidal effect on southern crabgrass (F): 3 (Herbicidal rate of 40% or more and less than 70%)
Windgrass [3]; [25]
  L: windgrass, herbicidal effect grade: 1 (Herbicidal rate of 5% or more and less than 20%)
Barnyard grass [4]; [25]
  H: barnyard grass, herbicidal effect grade: 0 (Herbicidal rate of 5% or less (almost no effect))
Chinese sprangletop; 320 g/ha
  herbicidal effect on Chinese sprangletop (D): 2 (Herbicidal rate of 20% or more and less than 40%)
Lambsquarters [5]; [25]
  O: lambsquarters, herbicidal effect grade: 0 (Herbicidal rate of 5% or less (almost no effect))
Blackgrass [6]; [25]
  J: blackgrass, herbicidal effect grade: 0 (Herbicidal rate of 5% or less (almost no effect))
Italian ryegrass [7]; [26]
  herbicidal effect on Italian ryegrass (K): 3 (Herbicidal rate of 40% or more and less than 70%)
Barnyard grass [8]; 320 g/ha
  herbicidal effect on barnyard grass (H): 5 (Herbicidal rate of 90% or more (almost completely withered))
Wild oat [9]; [26]
  herbicidal effect on wild oat (I): 4 (Herbicidal rate of 70% or more and less than 90%)
Blackgrass [10]; [26]
  herbicidal effect on blackgrass (J): 4 (Herbicidal rate of 70% or more and less than 90%)
Windgrass [11]; [26]
  herbicidal effect on windgrass (L): 3 (Herbicidal rate of 40% or more and less than 70%)
Italian ryegrass [12]; [25]
  K: Italian ryegrass, herbicidal effect grade: 1 (Herbicidal rate of 5% or more and less than 20%)
Wild oat [13]; [25]
  I: wild oat, herbicidal effect grade: 0 (Herbicidal rate of 5% or less (almost no effect))
Persian speedwell [14]; [26]
  herbicidal effect on persian speedwell (R): 4 (Herbicidal rate of 70% or more and less than 90%)
Barnyard grass [15]; [26]
  herbicidal effect on barnyard grass (H): 4 (Herbicidal rate of 70% or more and less than 90%)
Green foxtail [16]; [25]
  G: green foxtail, herbicidal effect grade: 0 (Herbicidal rate of 5% or less (almost no effect))
Green foxtail [17]; [26]
  herbicidal effect on green foxtail (G): 4 (Herbicidal rate of 70% or more and less than 90%)
False cleavers [18]; [26]
  herbicidal effect on false cleavers (Q): 0 (Herbicidal rate of 5% or less (almost no effect))
Velvetleaf [19]; [25]
  M: velvetleaf, herbicidal effect grade: 0 (Herbicidal rate of 5% or less (almost no effect))
Redroot pigweed; [25]
  N: redroot pigweed, herbicidal effect grade: 0 (Herbicidal rate of 5% or less (almost no effect))
Southern crabgrass [20]; [25]
  F: southern crabgrass, herbicidal effect grade: 0 (Herbicidal rate of 5% or less (almost no effect))
Lambsquarters [21]; [26]
  herbicidal effect on lambsquarters (O): 3 (Herbicidal rate of 40% or more and less than 70%)
Persian speedwell [22]; [25]
  R: persian speedwell, herbicidal effect grade: 3 (Herbicidal rate of 40% or more and less than 70%)
Velvetleaf [23]; [26]
  herbicidal effect on velvetleaf (M): 0 (Herbicidal rate of 5% or less (almost no effect))
